The values below come from patent US20040009899A1, “Treating dominant disorders” (priority 2002, published 2004).

Series [1] concerns R6/2 mice. Briefly: Body weight of treated R6/2 mice. In kind it is in vivo, mouse. As for the experimental part: (§1) Experiments were conducted to determine whether PNA-mediated inhibition of mutant huntingtin expression increased survival and/or reversed features of pathophysiology. R6/2 and non-transgenic mice were divided into two groups of three to five mice each, and treated with either HDs or ACSF for approximately ten weeks, beginning at five to six weeks of age. Treated animals received a dose of 0.15 mg/kg of the HDs PNA oligomer, administered by continuous infusion through an Alzet pump. All ACSF-treated transgenic mice died by three months of age.
(§2) In other experiments, R6/2 mice were divided into five groups (designated groups 1-5) containing eight to ten animals each. Groups 1-4 received either saline (group 1) or a specific amount of HDs (groups 2-4). Group 5 included untreated R6/2 mice. A sixth group included untreated non-transgenic B6CBA control mice. At 8 weeks of age, each mouse was weighed to establish a weight stability baseline. Baselines for clasping behavior, motility, and motor skill were established at 9 weeks of age using the methods described in Example 1.
(§3) At 9 weeks of age, the mice in each group received saline (group 1) or HDs at 2.0 mg/kg, 5.0 mg/kg, or 20.0 mg/kg (groups 2, 3, and 4, respectively) by i.p. injection every 48 hours. […] Weight stability, clasping behavior, motility, and motor skill were assessed weekly during the treatment period. […]

The subject of series [2] is R6/2 mice. The experiment in a line: Open field test to assess motility. The note with it: for level of motility (open field test): R6/2 mice. Format: in vivo, mouse. As for the experimental part: Open field test to assess motility: Each mouse was confined for 10 minutes in a Plexiglas locomotion chamber equipped with a laser source and detector. As the mouse passed between the laser source and detector, the laser beam was “broken” and the event was automatically recorded. The number of beam breaks for B6CBA mice treated with the HDs PNA oligomer was compared to that of saline-treated or untreated control B6CBA mice. This number was directly related to general activity of the mice.
as §1, §2
(§4) At 9 weeks of age, the mice in each group received saline (group 1) or HDs at 2.0 mg/kg, 5.0 mg/kg, or 20.0 mg/kg (groups 2, 3, and 4, respectively) by i.p. injection every 48 hours. The injections continued through 13 weeks of age (i.e., treatment for […]). Weight stability, clasping behavior, motility, and motor skill were assessed weekly during the treatment period. At the time of death or after the treatment period, the brain of each mouse was removed using standard methods. The brains were divided into hemispheres, and one hemisphere of each brain was saved for protein and mRNA analysis. The remaining hemispheres were fixed directly in 10% formalin for 5-7 days. After fixing, the brain hemispheres were weighed individually and processed for sectioning and pathophysiology.

For series [3], the system named is R6/2 mice. Briefly: Clasping test. In kind it is in vivo, mouse. The conditions noted are these: any group (2.0, 5.0 or 20.0 mg/kg i.p. every 48 hours). As for the experimental part: Clasping test: Dystonic movement was assessed using a procedure adapted from Yamamoto and colleagues (Yamamoto et al., Cell, 101:57-66, 2000). Each animal was suspended by the tail for 15 seconds, and its behavior was videotaped for subsequent analysis. The number and duration of abnormal movements were recorded upon viewing the videotaped behavior. An abnormal movement was defined as any dystonic movement of hindlimbs and/or forelimbs and/or trunk during which the limbs were pulled in toward the body in a manner distinct from that observed in wild-type mice. The duration of dystonic movements was recorded as a percent of total time. Mice were assessed for clasping score and clasping duration. The test period was divided into 2-second increments.
In other experiments, R6/2 mice were divided into five groups (designated groups 1-5) containing eight to ten animals each. Groups 1-4 received either saline (group 1) or a specific amount of HDs (groups 2-4). Group 5 included untreated R6/2 mice. A sixth group included untreated non-transgenic B6CBA control mice. […]
as §3

Series [4] has as its system R6/2 mice. Briefly: Brain weight / brain atrophy of treated R6/2 mice. In kind it is in vivo, mouse. As for the experimental part:
as §1, §4

The test system of a further series is non-transgenic mice. The note with it: mouse, in vivo, 0.15 mg/kg. As for the experimental part:
Cannulation and microsurgery—Method 2: Pump cannulas were prepared 48 hours before surgery. For adaptation to mice, Alzet pump cannulas were ground to a length of 2 mm. The cannulas then were sterilized by gas ozonation. Mice were anesthetized via i.p. injection with 100 mg/kg of a ketamine/xylazine solution containing 8 mg/mL ketamine and 1 mg/mL xylazine in 0.9% saline. Once anesthetized, each mouse was cannulated. Each anesthetized mouse was placed in a Stoelting Stereotaxic Frame with a mouse adapter (Stoelting Instruments). An incision was made using a scalpel, and the skin and tissue were pulled back with swabs to reveal the skull. The cannulation site was positioned for optimum access to the ventricle, at coordinates AP −0.2 mm, Horiz −1 mm from bregma. A cannula entry port and two bone screw ports were opened in the skull using a Dremel Flex Shaft Drill (Stoelting Instruments) with a 2.1 mm burr. The cannula was lowered into place and affixed using Loctite 454 (Loctite Corp., Avon, Ohio). An Alzet Mini-Osmotic Pump was inserted into a pouch beneath the skin and attached to the cannula with silastic tubing. The wound was closed using wound clips and the animal was allowed to recuperate.
Delivery of PNA oligomer solutions: All handling of tubing and cannulas was done under sterile conditions. […]

Setting [5] is: surviving R6/2 mice, 0.15 mg/kg continuous infusion by Alzet pump.

Regarding “HDs: sense PNA oligomer, 14 residues, 5′-GGACTGCCGTGCCG-3′ (SEQ ID NO:3), specific for the expanded human HD allele (all peptide nucleic acid (PNA))”, the “weight stability over the treatment period” value in the series on R6/2 mice [1] (R6/2 mice, 5.0 mg/kg i.p. every 48 hours, compared to 2.0 mg/kg or 20.0 mg/kg) is on record as “more stable weight”. Moreover, the “body weight over time” value in the series with R6/2 mice [1] (setting [5]) is recorded as “continued to gain weight over time”. In addition, the “level of motility (open field test)” value in the series on R6/2 mice [2] (2.0 mg/kg i.p. every 48 hours, compared to untreated R6/2 mice) was “no difference in motility”; with R6/2 mice [2] (5.0 mg/kg i.p. every 48 hours, lower than nontransgenic controls), “increased as compared to untreated R6/2 mice”; in the series on R6/2 mice [2] (20.0 mg/kg i.p. every 48 hours, lower than nontransgenic controls), “increased as compared to untreated R6/2 mice”. Moreover, the “motility as compared to non-transgenic animals” value in the series on R6/2 mice [2] (setting [5]) is given as “decline in motility”. Further, the “clasping behavior over the treatment period” value with R6/2 mice [3] is listed as “No significant alterations in clasping behavior”. For the same substance, the “general brain atrophy typical of untreated R6/2 mice” value with R6/2 mice [4] (R6/2 mice, 0.15 mg/kg continuous infusion by Alzet pump) is on record as “did not display the general brain atrophy”. The “recovery in brain hemisphere weight as compared to untreated non-transgenic mice” value in the series with R6/2 mice [4] (R6/2 mice, 20.0 mg/kg i.p. every 48 hours) is given as “greatest degree of recovery”. Further, the brain hemisphere weight entry in the series on R6/2 mice [4] (R6/2 mice, all doses (2.0, 5.0, 20.0 mg/kg i.p. every 48 hours), dose dependent effect) is on record as “greater than the weights of brain hemispheres from untreated R6/2 mice”. Moreover, the brain weight result with R6/2 mice [4] (two non-surviving treated R6/2 mice, 0.15 mg/kg continuous infusion by Alzet pump) is reported as “increased brain weight”. Moreover, the “effect of treatment on non-transgenic animals” value with non-transgenic mice is reported as “appeared unaffected”.
